Assay results reported in PMC8287724, “Reducing Auditory Nerve Excitability by Acute Antagonism of Ca^2+-Permeable AMPA Receptors” (Frontiers in Synaptic Neuroscience, 2021).

Tested on: auditory nerve compound action potential (CAP)
Assay: Auditory nerve CAP after systemic (intraperitoneal) delivery
Assay type: in vivo, guinea pig
Conditions: for effect on CAP thresholds: 1 to 22 kHz; for CAP amplitude reduction, on average: after ~1 h, 8 kHz tone bursts at 90 dB SPL
Experimental: This study utilized 21 NIH-strain, pigmented guinea pigs weighing from 400 to 650 g, in accordance with policies and protocols approved by the Institutional Animal Care and Use Committee at Washington University in St. Louis (20180133, 20190035). Animals were anesthetized with intraperitoneal (IP) injection of 100 mg/kg sodium thiobutabarbital (Inactin, Sigma, St. Louis, MO). Once anesthetized, the fur from the head and neck was shaved and a tracheal cannula was placed. The animal was maintained on 0.8–1.2% isoflurane in oxygen using a mechanical ventilator. The ventilator's tidal volume was adjusted to maintain a 5% end-tidal CO2 which was monitored with a CapnoTrue AMP (Bluepoint Medical, Zevenaar, The Netherlands). Body temperature was maintained at 38 degrees C with a DC-powered heating blanket-rectal thermometer (Model 50-7079; Harvard Apparatus). Heart rate and oxygen saturation were monitored with a pulse oximeter (Surgivet, Waukesha, WI). The auditory bulla was exposed ventrally for placement of recording electrodes. The jugular vein was cannulated to maintain hydration with 0.5 mL per hour of Lactated Ringer's solution. To prevent middle ear muscle contractions, vecuronium bromide (0.2 mg/kg) was administered immediately prior to data collection and every 1.5 h thereafter.
As described for local delivery, cochlear output was measured similarly for systemic delivery of IEM-1460 and IEM-1925. Complete details have been previously published (Salt et al., [2013]). Briefly, acoustic tone bursts were applied in a closed sound system. The plastic extension tube of the acoustic assembly (Etymotic Research, ER-10 C) was coupled to the end of the hollow ear bar with the tube tip positioned ~1.5 mm from the tympanic membrane. Stimulus generation and data collection were performed with Tucker Davis System 3 hardware controlled by a custom written program (Microsoft Visual Basic). Stimulus waveforms were routed through a programmable Tucker Davis PA5 attenuator and HB7 headphone amplifier. Stimuli were calibrated from 0.125 to 26 kHz in 1/4 octave steps. A CAP audiogram was obtained at the beginning and end of the experiment. Up to 60 min of baseline audiometric data were obtained prior to drug delivery. Data with baseline changes >20% were excluded. A 13-level tone probe series, at selected frequencies, was repeated at 2-min intervals. Distortion product otoacoustic emissions (DPOAEs) were measured using an ER10C probe system. The two primary tone frequencies were set at 6 kHz (f1) and 7.4 kHz (f2), for a f2/f1-ratio of 1.23, with levels of 65 dB SPL (L1) and 55 dB SPL (L2).
At each probe frequency, CAP peak-to-peak amplitudes were measured from the first trough (N1) to the first peak (P1). Latencies were measured to the trough of N1. Cochlear output was compared before and after intraperitoneal drug delivery. The data were tested for normality using a Kolmogorov-Smirnov test. For CAP amplitude and latency, significance was assessed with the Mann-Whitney U-test. The Wilcoxon signed rank test was used to assess CAP threshold. Friedman test was used to compare concentrations of drug between perilymph and CSF. A p < 0.05 was considered statistically significant. A Bonferroni correction was used when performing multiple comparison testing. All statistical tests were performed with IBM SPSS Statistics Version 27 (SPSS Inc., Chicago, IL, United States).
After at least 30 min of baseline data, 1 mL of Lactated Ringer's was injected into the peritoneal space of the guinea pig as a vehicle control. Then, 13.5 mg/kg IEM-1460 or 8 mg/kg IEM-1925 in Lactated Ringer's was injected into the peritoneal space of the guinea pig. The entire experiment took ~3 h to complete: 1 h for anesthetic induction and surgery, 30 min for sound calibration and CAP threshold measurements, and 2 h for drug delivery, DPOAE and CAP measurements. After collection of perilymph and CSF, the animal was euthanized via saturated KCl delivered directly into the jugular vein. […]

[1] = IP injection: IEM-1460 13.5 mg/kg, IEM-1925 8 mg/kg
[2] = IP injection: IEM-1460 13.5 mg/kg, IEM-1925 8 mg/kg, N = 4

SMILES	effect on CAP latency (IP 13.5 mg/kg, all tone levels, N = 4)	mean difference between pre- and post-injection CAP amplitudes (IP 13.5 mg/kg, exemplary recording, across tone levels)	relative reduction of CAP amplitude (IP 13.5 mg/kg, exemplary recording, probes of 40–90 dB SPL)	delay from IP injection to start of CAP reduction [1] [min]	effect on CAP thresholds [2]	CAP amplitude reduction, on average [2]	CAP reduction from baseline [1] [%]
C[N+](C)(C)CCCCCNCC12CC3CC(CC(C3)C1)C2 [IEM-1460]	no statistically significant difference	19.1–269 μV	~ 50%	20 to 50	not statistically different	~ 20%	
NCCCCCNC1(c2ccccc2)CCCCC1 [IEM-1925]					minimal effect	~ 20%	> 50
